Here are results for 19 molecules from US9611262B2, “Substituted 2-azabicycles and their use as orexin receptor modulators” (JANSSEN PHARMACEUTICA NV, priority 2014, dated 2017).

The test deals with human orexin 2 receptor (Homo sapiens (Human), UniProt O43614). The experiment in a line: Human orexin 2 receptor radioligand binding ([3H]-EMPA competition). To be noted: HEK293 stably expressing human orexin 2 receptor; 2 nM [3H]-EMPA; averages of 2-20 runs; read-out: hOX2 Ki. How it is done: The in vitro affinity of the compounds of the invention for the rat/human orexin 1 and human orexin 2 receptors was determined by competitive radioligand binding using [^3H](1-(5-(2-fluoro-phenyl)-2-methyl-thiazol-4-yl)-1-((S)-2-(5-phenyl-(1,3,4)oxadiazol-2-ylmethyl)-pyrrolidin-1-yl)-methanone) (Langmead et al., 2004) and [^3H]EMPA (n-ethyl-2[96-methoxy-pyridin-3-yl)-(toluene-2-sulfonyl)-amino]-N-pyridin-3-ylmethyl acetamide), respectively (Langmead et al., 2004, British Journal of Pharmacology 141:340-346; Malherbe et al., 2004, British Journal of Pharmacology 156:1326-41).
Data are analyzed using pc-Sandy macro and graphed on Graphpad Prism 5. For analysis, each concentration point is averaged from triplicate values and the averaged values are plotted on Graphpad Prism. The IC50 was determined by applying the following equation (GraphPad Prism 5.0, San Diego) for one site competition where X=log (concentration) and Y=specific binding. Top denotes the total [^3H]— (1-(5-(2-fluoro-phenyl)-2-methyl-thiazol-4-yl)-1-((S)-2-(5-phenyl-(1,3,4)oxadiazol-2-ylmethyl)-pyrrolidin-1-yl)-methanone) binding, bottom denotes the nonspecific [^3H]— (1-(5-(2-fluoro-phenyl)-2-methyl-thiazol-4-yl)-1-((S)-2-(5-phenyl-(1,3,4)oxadiazol-2-ylmethyl)-pyrrolidin-1-yl)-methanone) binding. Graphpad Prism calculates Ki value from IC50 and the pre-determined Kd values for [^3H]— (1-(5-(2-fluoro-phenyl)-2-methyl-thiazol-4-yl)-1-((S)-2-(5-phenyl-(1,3,4)oxadiazol-2-ylmethyl)-pyrrolidin-1-yl)-methanone) and [^3H]-EMPA. The Ki for each compound is then uploaded into 3DX. Each run comprises individual compounds in triplicate. The data in Table 1 and Table 2 represent averages from between 2-20 runs
Human Orexin 2 Receptor Radioligand Binding Studies
HEK293 stably expressing human orexin 2 receptor (Genebank accession number NM_001526) were grown to confluency in DMEM (Hyclone, cat # SH30022), 10% FBS, 1× Pen/Strep, 1× NaPyruvate, 10 mM HEPES, 600 μg/ml G418 media on 150 cm^2 tissue culture plates, washed with 5 mM EDTA in PBS (HyClone Dulbecco's Phosphate Buffered Saline 1× with Calcium and Magnesium, Cat # SH30264.01, hereafter referred to simply as PBS) and scraped into 50 ml tubes. After centrifugation (2K×G, 5 min at 4° C.), the supernatant was aspirated and the pellets frozen and stored at −80° C. Cells were resuspended in PBS in the presence of 1 tablet of protease inhibitor cocktail (Roche, Cat. #11836145001) per 50 mL. […] Compounds were solubilized in 100% DMSO (Acros Organics, Cat. #61042-1000) and tested over a range of 7 concentration (from 0.1 nM to 10 μM). The final concentration of DMSO in the reactions is equal to or less than 0.1%. Total and nonspecific binding was determined in the absence and presence of 10 μM almorexant. The total volume of each reaction is 200 μL (20 μL of diluted compounds, 80 μL of [^3H]-EMPA diluted in PBS and 100 μL of the cell suspension). Reactions were run for 60 min at room temperature and terminated by filtration through GF/C filter plates (PerkinElmer, Cat. #6005174) presoaked in 0.3% polyethylenimine using the cell harvester (PerkinElmer Filtermate). The plates were washed 3 times by aspirating 30 ml PBS through the plates. Plates were dried in 55° C. oven for 60 min, scintillation fluid was added, and the radioactivity was counted on a Topcount (Packard).

Each structure is given as a SMILES string.

The term Ki denotes the dissociation constant of the complex between target and ligand, obtained from inhibition or displacement.

Chain of human orexin 2 receptor (O43614 whole entry): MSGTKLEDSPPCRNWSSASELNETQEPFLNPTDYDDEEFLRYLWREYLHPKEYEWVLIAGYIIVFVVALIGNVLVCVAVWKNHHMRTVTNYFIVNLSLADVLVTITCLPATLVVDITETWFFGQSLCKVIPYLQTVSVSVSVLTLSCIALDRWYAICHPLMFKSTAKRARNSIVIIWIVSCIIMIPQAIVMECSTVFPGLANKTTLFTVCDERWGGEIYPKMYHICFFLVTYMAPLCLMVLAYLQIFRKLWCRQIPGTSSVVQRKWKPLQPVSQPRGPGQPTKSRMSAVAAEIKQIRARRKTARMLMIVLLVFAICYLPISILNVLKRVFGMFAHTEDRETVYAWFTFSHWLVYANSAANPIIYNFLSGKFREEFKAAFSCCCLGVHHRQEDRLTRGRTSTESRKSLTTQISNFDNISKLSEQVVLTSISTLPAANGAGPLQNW

In the case of `Cc1cnc(C(=O)N2C(C)C3CC(Nc4ccc(C(F)(F)F)cn4)C2C3)c(-n2nccn2)c1` (racemic) [Example 61, (R/S)-(5-methyl-3-(2H-1,2,3-triazol-2-yl)pyridin-2-yl)(3-methyl-6-((5-(trifluoromethyl)pyridin-2-yl)amino)-2-azabicyclo[2.2.1]heptan-2-yl)methanone], the Ki stood at 585 nM. Next, `[2H]C([2H])([2H])[C@]1([2H])[C@H]2C[C@@H](Oc3ccc(C(F)(F)F)cn3)[C@H](C2)N1C(=O)c1cc(F)ccc1-c1ncccn1` [Example 167, [(1R,2R,4S,5R)-2-deuterio-2-(trideuteriomethyl)-5-[[5-(trifluoromethyl)-2-pyridyl]oxy]-3-azabicyclo[2.2.1]heptan-3-yl]-(5-fluoro-2-pyrimidin-2-yl-phenyl)methanone]: 767 nM; `CC1C2CC(Oc3ccc(C(F)(F)F)cn3)C(C2)N1C(=O)c1cc(F)ccc1-c1ncccn1` (single isomer, unassigned) [Example 18B, (5-fluoro-2-(pyrimidin-2-yl)phenyl)((1S*,3R*,4R*,6R*)-3-methyl-6-((5-(trifluoromethyl)pyridin-2-yl)oxy)-2-azabicyclo[2.2.1]heptan-2-yl)methanone]: 879 nM; `Cc1cnc(-n2nccn2)c(C(=O)N2C(CF)C3CC(Oc4ccc(C(F)(F)F)cn4)C2C3)c1` (racemic) [Example 72]: greater than 10000 nM. With `CC1C2CC(Nc3cnc(C(F)(F)F)cn3)C(C2)N1C(=O)c1ccccc1-n1nccn1` (racemic) [Example 5, (R/S)-(2-(2H-1,2,3-triazol-2-yl)phenyl)(3-methyl-6-((5-(trifluoromethyl)pyrazin-2-yl)amino)-2-azabicyclo[2.2.1]heptan-2-yl)methanone] the figure was 278 nM.

On to `CC1C2CC(Oc3ccc(C(F)(F)F)cn3)C(C2)N1C(=O)c1ncccc1-n1nccn1` (racemic) [Example 9, (R/S)-(3-(2H-1,2,3-triazol-2-yl)pyridin-2-yl)(3-methyl-6-((5-(trifluoromethyl)pyridin-2-yl)oxy)-2-azabicyclo[2.2.1]heptan-2-yl)methanone], for which the Ki worked out at 3700 nM. With `Cc1ccc(-n2nccn2)c(C(=O)N2C(C)C3CC(Nc4cnc(C(F)(F)F)cn4)C2C3)n1` (single isomer, unassigned) [Example 6B, (6-methyl-3-(2H-1,2,3-triazol-2-yl)pyridin-2-yl)((1S*,3S*,4S*,6R*)-3-methyl-6-((5-(trifluoromethyl)pyrazin-2-yl)amino)-2-azabicyclo[2.2.1]heptan-2-yl)methanone] the figure was 154 nM; with `Cc1ccc(-n2nccn2)c(C(=O)N2C(C)C3CC(Nc4cnc(C(F)(F)F)cn4)C2C3)n1` (single isomer, unassigned) [Example 69B, (6-methyl-3-(2H-1,2,3-triazol-2-yl)pyridin-2-yl)((1S*,3R*,4S*,6R*)-3-methyl-6-((5-(trifluoromethyl)pyrazin-2-yl)amino)-2-azabicyclo[2.2.1]heptan-2-yl)methanone], 236 nM.

For the molecule `Cc1ccc(-n2nccn2)c(C(=O)N2C(C)C3CC(Nc4cnc(C(F)(F)F)cn4)C2C3)n1` (single isomer, unassigned) [Example 6, (R/S)-(6-methyl-3-(2H-1,2,3-triazol-2-yl)pyridin-2-yl)(3-methyl-6-((5-(trifluoromethyl)pyrazin-2-yl)amino)-2-azabicyclo[2.2.1]heptan-2-yl)methanone], the Ki was 664 nM.

As to `CC1C2CC(Nc3cnc(C(F)(F)F)cn3)C(C2)N1C(=O)c1ccccc1-n1nccn1` (single isomer, unassigned) [Example 68A, (2-(2H-1,2,3-triazol-2-yl)phenyl)((1R*,3S*,4R*,6S*)-3-methyl-6-((5-(trifluoromethyl)pyrazin-2-yl)amino)-2-azabicyclo[2.2.1]heptan-2-yl)methanone], the Ki is greater than 10000 nM.

Turning to `C[C@@H]1[C@H]2C[C@@H](Oc3ccc(C(F)(F)F)cn3)[C@H](C2)N1C(=O)c1ccccc1-c1ncccn1` (relative stereo) [Example 33, ((1S*,3R*,4R*,6R*)-3-methyl-6-((5-(trifluoromethyl)pyridin-2-yl)oxy)-2-azabicyclo[2.2.1]heptan-2-yl)(2-(pyrimidin-2-yl)phenyl)methanone], the Ki was found to be 602 nM.

Consider `Cc1cnc(C(=O)N2[C@H](C)[C@H]3C[C@@H](Nc4ccc(C(F)(F)F)cn4)[C@@H]2C3)c(-n2nccn2)c1` (relative stereo) [Example 66, (5-methyl-3-(2H-1,2,3-triazol-2-yl)pyridin-2-yl)((1S*,3R*,4S*,6R*)-3-methyl-6-((5-(trifluoromethyl)pyridin-2-yl)amino)-2-azabicyclo[2.2.1]heptan-2-yl)methanone], for which the inhibition constant (Ki) stood at 317 nM. With `CC1C2CC(Oc3ccc(C(F)(F)F)cn3)C(C2)N1C(=O)c1ccc(F)cc1-c1ncccn1` (single isomer, unassigned) [Example 17B, (4-fluoro-2-(pyrimidin-2-yl)phenyl)((1S*,3R*,4R*,6R*)-3-methyl-6-((5-(trifluoromethyl)pyridin-2-yl)oxy)-2-azabicyclo[2.2.1]heptan-2-yl)methanone] the figure was 947 nM. With `C[C@@H]1[C@H]2C[C@@H](Nc3ccc(C(F)(F)F)cn3)[C@H](C2)N1C(=O)c1cccc(F)c1-n1nccn1` (relative stereo) [Example 65, (3-fluoro-2-(2H-1,2,3-triazol-2-yl)phenyl)((1S*,3R*,4S*,6R*)-3-methyl-6-((5-(trifluoromethyl)pyridin-2-yl)amino)-2-azabicyclo[2.2.1]heptan-2-yl)methanone] the figure was 183 nM. Turning to `Cc1ccc(-n2nccn2)c(C(=O)N2C(CC(C)C)C3CC(Oc4ccc(C(F)(F)F)cn4)C2C3)n1` (racemic) [Example 210, (R/S)-[2-isobutyl-5-[[5-(trifluoromethyl)-2-pyridyl]oxy]-3-azabicyclo[2.2.1]heptan-3-yl]-[6-methyl-3-(triazol-2-yl)-2-pyridyl]methanone], the Ki came out at 1500 nM. Take `CC1C2CC(Oc3ccc(C(F)(F)F)cn3)C(C2)N1C(=O)c1cccc(F)c1-c1ncc(F)cn1` (racemic) [Example 20, (R/S)-(3-fluoro-2-(5-fluoropyrimidin-2-yl)phenyl)(3-methyl-6-((5-(trifluoromethyl)pyridin-2-yl)oxy)-2-azabicyclo[2.2.1]heptan-2-yl)methanone]: the inhibitory constant (Ki) is 3100 nM. Next, `C[C@@H]1[C@H]2C[C@@H](Oc3ccc(C(F)(F)F)cn3)[C@H](C2)N1C(=O)c1ncccc1-n1nccn1` (relative stereo) [Example 23, (3-(2H-1,2,3-triazol-2-yl)pyridin-2-yl)((1S*,3R*,4R*,6R*)-3-methyl-6-((5-(trifluoromethyl)pyridin-2-yl)oxy)-2-azabicyclo[2.2.1]heptan-2-yl)methanone]: 2400 nM.

Take `CCOc1ccc(C)nc1C(=O)N1[C@H](C)[C@H]2C[C@@H](Oc3cnc(C(F)(F)F)cn3)[C@@H]1C2` (relative stereo) [Example 56, (3-ethoxy-6-methylpyridin-2-yl)((1S*,3R*,4R*,6R*)-3-methyl-6-((5-(trifluoromethyl)pyrazin-2-yl)oxy)-2-azabicyclo[2.2.1]heptan-2-yl)methanone]: the Ki came to 7000 nM. Next, `[2H]C1([2H])[C@H]2C[C@@H]([C@@H]1Oc1ccc(C(F)(F)F)cn1)N(C(=O)c1ncc(C)cc1-n1nccn1)[C@@H]2C` [Example 200, [(1R,3R,4S,6R)-2,2-dideuterio-6-methyl-3-[[5-(trifluoromethyl)-2-pyridyl]oxy]-5-azabicyclo[2.2.1]heptan-5-yl]-[5-methyl-3-(triazol-2-yl)-2-pyridyl]methanone]: 1200 nM.
